Reference: patent US7998681B2, “Diagnosis and therapy of antibody-mediated inflammatory auto-immune disorders” (Los Angeles Biomedical Research Institute at Harbor-UCLA …, priority 2000, dated 2011)

How the values were obtained:
[1] = tested on: RANTES; experiment: RANTES ELISA of medium from treated fibroblasts, GD donors; type: cell-based, human; settings: GD, limit of detection 15 pg/ml
Description: In addition to its therapeutic aspects, the present invention also relates to a diagnostic method for detecting the presence of antibody-activated fibroblasts in the patient. Applicants believe that several auto immune diseases or disorders are associated with antibody-activated fibroblasts. […] Altered levels of these chemoattractants can be detected in various biological samples in mammals, preferably humans. Levels of IL-16 and/or RANTES may be monitored in a patient, using standard techniques, as an indication of the deleterious aspects of the disease condition. Biological samples, including but not limited to serum, vitreous humor, aqueous humor, synovial fluid, and tissue, will be drawn from the patient using standard techniques. Particularly preferred are serum samples. The measurement of the IL-16 and RANTES levels may be monitored using any method possible to detect the levels of these proteins in biological samples. A preferred method of analysis is by ELISA as described in Sciaky, D. et al., J. Immunol. 164(7):3806-14, 2000. An ELISA specific for IL-16 can be used to assess the levels released by fibroblasts as described previously in Lim, K. G. et al., J. Immunol. 156(7): 2566-70, 1996. An ELISA specific for RANTES can be used according to the manufacturer's specification (BioSource Intl., Camarillo, Calif.).
(§1) The levels of IL-16 and RANTES were then assessed with specific ELISAs. The ELISA assay for IL-16 is performed essentially as discussed in Sciaky D., Brazer, W., Center, D. M., Cruikshank, W. W. and Smith, T. J.: Cultured human fibroblasts express constitutive IL-16 mRNA: Cytokine induction of active IL-16 protein synthesis through a caspase-3-dependent mechanism. J. Immunol. 164(7):3806-14, 2000). An ELISA (BioSource) for RANTES was performed according to the manufacturer's instructions.

[2] = tested on: RANTES; experiment: RANTES ELISA of medium from treated fibroblasts, normal donors; type: cell-based, human; settings: limit of detection 15 pg/ml
Description: In addition to its therapeutic aspects, the present invention also relates to a diagnostic method for detecting the presence of antibody-activated fibroblasts in the patient. Applicants believe that several auto immune diseases or disorders are associated with antibody-activated fibroblasts. Applicants have shown that increased activation of fibroblasts by auto-antibodies can be monitored by determining the levels of IL-16 and/or RANTES production in a patient. Altered levels of these chemoattractants can be detected in various biological samples in mammals, preferably humans. Levels of IL-16 and/or RANTES may be monitored in a patient, using standard techniques, as an indication of the deleterious aspects of the disease condition. Biological samples, including but not limited to serum, vitreous humor, aqueous humor, synovial fluid, and tissue, will be drawn from the patient using standard techniques. Particularly preferred are serum samples. The measurement of the IL-16 and RANTES levels may be monitored using any method possible to detect the levels of these proteins in biological samples. A preferred method of analysis is by ELISA as described in Sciaky, D. et al., J. Immunol. 164(7):3806-14, 2000. An ELISA specific for IL-16 can be used to assess the levels released by fibroblasts as described previously in Lim, K. G. et al., J. Immunol. 156(7): 2566-70, 1996. An ELISA specific for RANTES can be used according to the manufacturer's specification (BioSource Intl., Camarillo, Calif.).
as §1, with “instructions. In an analysis of over a dozen strains, TAO specific IgG elicit substantial induction of IL-16 and RANTES and in no case were normal fibroblasts so affected.” for “instructions.”

IL-1β: pro-inflammatory cytokine used to activate fibroblasts
RANTES ([1]; strain 1, Orbit): 84 ± 8 pg/mL | RANTES ([1]; strain 2, Orbit): 116 ± 11 pg/mL | RANTES ([1]; strain 3, Abdominal skin): 116 ± 11 pg/mL | RANTES ([1]; strain 4, Orbit): 128 ± 26 pg/mL | RANTES ([1]; strain 6, Neck skin): 253 ± 42 pg/mL | RANTES ([1]; strain 7, Pretibial skin): 128 ± 26 pg/mL | RANTES ([1]; strain 9, Orbit): 78 ± 21 pg/mL | RANTES ([1]; strain 10, Orbit): 214 ± 30 pg/mL | RANTES ([1]; strain 11, Orbit): 69 ± 6 pg/mL | RANTES ([2]; strain 12, Orbit): 42 ± 9 pg/mL | RANTES ([2]; strain 14, Orbit): 79 ± 11 pg/mL | RANTES ([2]; strain 15, Extremity Skin): 173 ± 12 pg/mL | RANTES ([2]; strain 16, Extremity Skin): 125 ± 9 pg/mL
